Source: PubChem BioAssay (NCI)
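Following 48 hours of exposure in 96-well plates, responses at five concentrations were used to interpolate endpoints linearly. TGI: total growth inhibition.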

Columns and labels:
Assay in all cases: inhibition of tumour cell growth, NCI panel, 48 h
OVCAR-4 ovarian = tested on: OVCAR-4 ovarian
DMS 114 small cell lung = tested on: DMS 114 small cell lung
HL-60(TB) leukemia = tested on: HL-60(TB) leukemia
M14 melanoma = tested on: M14 melanoma
KM12 colon = tested on: KM12 colon
HOP-18 NSCLC = tested on: HOP-18 NSCLC
786-0 renal = tested on: 786-0 renal
MOLT-4 leukemia = tested on: MOLT-4 leukemia
NCI-H522 lung = tested on: NCI-H522 lung
NCI-H23 lung = tested on: NCI-H23 lung
A549 NSCLC = tested on: A549 NSCLC
HT29 colon = tested on: HT29 colon
SN12C renal = tested on: SN12C renal
SF-268 CNS = tested on: SF-268 CNS
IGROV1 ovarian = tested on: IGROV1 ovarian
SK-OV-3 ovarian = tested on: SK-OV-3 ovarian
LOX IMVI melanoma = tested on: LOX IMVI melanoma
SW-620 colon = tested on: SW-620 colon
OVCAR-5 ovarian = tested on: OVCAR-5 ovarian
ACHN renal = tested on: ACHN renal
SF-295 CNS = tested on: SF-295 CNS
KM20L2 colon = tested on: KM20L2 colon
HOP-62 NSCLC = tested on: HOP-62 NSCLC
EKVX NSCLC = tested on: EKVX NSCLC
RXF-631 renal = tested on: RXF-631 renal
SK-MEL-2 melanoma = tested on: SK-MEL-2 melanoma
XF 498 CNS = tested on: XF 498 CNS
SNB-75 CNS = tested on: SNB-75 CNS
HOP-92 NSCLC = tested on: HOP-92 NSCLC
A498 renal = tested on: A498 renal
NCI-H226 lung = tested on: NCI-H226 lung
UACC-62 melanoma = tested on: UACC-62 melanoma
HCT-15 colon = tested on: HCT-15 colon
MALME-3M melanoma = tested on: MALME-3M melanoma
OVCAR-8 ovarian = tested on: OVCAR-8 ovarian
UACC-257 melanoma = tested on: UACC-257 melanoma
CAKI-1 renal = tested on: CAKI-1 renal
OVCAR-3 ovarian = tested on: OVCAR-3 ovarian
UO-31 renal = tested on: UO-31 renal
SK-MEL-5 melanoma = tested on: SK-MEL-5 melanoma
HCT-116 colon = tested on: HCT-116 colon
RPMI-8226 leukemia = tested on: RPMI-8226 leukemia
SF-539 CNS = tested on: SF-539 CNS
CCRF-CEM leukemia = tested on: CCRF-CEM leukemia
M19-MEL melanoma = tested on: M19-MEL melanoma
DLD-1 colon = tested on: DLD-1 colon
SK-MEL-28 melanoma = tested on: SK-MEL-28 melanoma
SNB-78 CNS = tested on: SNB-78 CNS
K-562 leukemia = tested on: K-562 leukemia
TK-10 renal = tested on: TK-10 renal
SR leukemia = tested on: SR leukemia
LXFL 529 NSCLC = tested on: LXFL 529 NSCLC
DMS 273 small cell lung = tested on: DMS 273 small cell lung
U251 CNS = tested on: U251 CNS
NCI-H460 lung = tested on: NCI-H460 lung
RXF 393 renal = tested on: RXF 393 renal
COLO 205 colon = tested on: COLO 205 colon

For `O=c1c2cccc3cccc(c4n1CCCN=4)c32`, the TGI (OVCAR-4 ovarian) was > 100 µM, the TGI (DMS 114 small cell lung) was > 100 µM and the TGI (HL-60(TB) leukemia) was > 100 µM. The TGI (M14 melanoma) was > 100 µM, the TGI (KM12 colon) was > 100 µM and the TGI (HOP-18 NSCLC) was > 100 µM. The TGI (786-0 renal) was > 100 µM, the TGI (MOLT-4 leukemia) was > 100 µM and the TGI (NCI-H522 lung) was > 100 µM. For the same compound, the TGI (NCI-H23 lung) was > 100 µM, the TGI (A549 NSCLC) was > 100 µM and the TGI (HT29 colon) was > 100 µM. The TGI (SN12C renal) was > 100 µM, the TGI (SF-268 CNS) was > 100 µM and the TGI (IGROV1 ovarian) was > 100 µM. For the same compound, the TGI (SK-OV-3 ovarian) was > 100 µM, the TGI (LOX IMVI melanoma) was 53.5 µM and the TGI (SW-620 colon) was > 100 µM. The TGI (OVCAR-5 ovarian) was > 100 µM, the TGI (ACHN renal) was > 100 µM and the TGI (SF-295 CNS) was > 100 µM. For the same compound, the TGI (KM20L2 colon) was > 100 µM, the TGI (HOP-62 NSCLC) was > 100 µM and the TGI (EKVX NSCLC) was > 100 µM. The TGI (RXF-631 renal) was > 100 µM, the TGI (SK-MEL-2 melanoma) was > 100 µM and the TGI (XF 498 CNS) was > 100 µM. The TGI (SNB-75 CNS) was > 100 µM, the TGI (HOP-92 NSCLC) was > 100 µM and the TGI (A498 renal) was > 100 µM. For the same compound, the TGI (NCI-H226 lung) was > 100 µM, the TGI (UACC-62 melanoma) was > 100 µM and the TGI (HCT-15 colon) was > 100 µM. The TGI (MALME-3M melanoma) was > 100 µM, the TGI (OVCAR-8 ovarian) was > 100 µM and the TGI (UACC-257 melanoma) was > 100 µM. The TGI (CAKI-1 renal) was > 100 µM, the TGI (OVCAR-3 ovarian) was > 100 µM and the TGI (UO-31 renal) was > 100 µM. The TGI (SK-MEL-5 melanoma) was > 100 µM, the TGI (HCT-116 colon) was > 100 µM and the TGI (RPMI-8226 leukemia) was > 100 µM. For the same compound, the TGI (SF-539 CNS) was > 100 µM, the TGI (CCRF-CEM leukemia) was > 100 µM and the TGI (M19-MEL melanoma) was > 100 µM. The TGI (DLD-1 colon) was > 100 µM, the TGI (SK-MEL-28 melanoma) was > 100 µM and the TGI (SNB-78 CNS) was > 100 µM. For the same compound, the TGI (K-562 leukemia) was > 100 µM, the TGI (TK-10 renal) was > 100 µM and the TGI (SR leukemia) was > 100 µM. The TGI (LXFL 529 NSCLC) was > 100 µM, the TGI (DMS 273 small cell lung) was > 100 µM and the TGI (U251 CNS) was > 100 µM. For the same compound, the TGI (NCI-H460 lung) was > 100 µM, the TGI (RXF 393 renal) was > 100 µM and the TGI (COLO 205 colon) was > 100 µM.
